# Source: patent US11655235B2, “Pyrrolidine and piperidine compounds” (YUHAN CORPORATION, priority 2019, dated 2023)
# pIC50: −log10 of the molar value.
# Assays:
# Format in all cases: biochemical
# recombinant human DPP9 = target: T1, recombinant human DPP9 (Homo sapiens, UniProt Q86TI2); test: DPP9 inhibition, fluorogenic substrate H-Gly-Pro-AMC; conditions: recombinant human DPP9
# T1 construct: purchased R&D Systems
# Method in brief: (§1)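 Enzyme per reaction: 50 ng DPP9, 20 ng DPP8, 10 ng each DPP7 and PREP. Compounds were serially diluted (8 points, up to 0.5% DMSO) and incubated at 25 °C.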
# recombinant human PREP = target: T2, recombinant human PREP (Homo sapiens, UniProt P48147); test: PREP inhibition, fluorogenic substrate Z-Gly-Pro-AMC; conditions: Inhibitory Activity (IC50, nM) PREP, recombinant human PREP
# T2 construct: purchased R&D System
# T2 sequence (P48147 1-710): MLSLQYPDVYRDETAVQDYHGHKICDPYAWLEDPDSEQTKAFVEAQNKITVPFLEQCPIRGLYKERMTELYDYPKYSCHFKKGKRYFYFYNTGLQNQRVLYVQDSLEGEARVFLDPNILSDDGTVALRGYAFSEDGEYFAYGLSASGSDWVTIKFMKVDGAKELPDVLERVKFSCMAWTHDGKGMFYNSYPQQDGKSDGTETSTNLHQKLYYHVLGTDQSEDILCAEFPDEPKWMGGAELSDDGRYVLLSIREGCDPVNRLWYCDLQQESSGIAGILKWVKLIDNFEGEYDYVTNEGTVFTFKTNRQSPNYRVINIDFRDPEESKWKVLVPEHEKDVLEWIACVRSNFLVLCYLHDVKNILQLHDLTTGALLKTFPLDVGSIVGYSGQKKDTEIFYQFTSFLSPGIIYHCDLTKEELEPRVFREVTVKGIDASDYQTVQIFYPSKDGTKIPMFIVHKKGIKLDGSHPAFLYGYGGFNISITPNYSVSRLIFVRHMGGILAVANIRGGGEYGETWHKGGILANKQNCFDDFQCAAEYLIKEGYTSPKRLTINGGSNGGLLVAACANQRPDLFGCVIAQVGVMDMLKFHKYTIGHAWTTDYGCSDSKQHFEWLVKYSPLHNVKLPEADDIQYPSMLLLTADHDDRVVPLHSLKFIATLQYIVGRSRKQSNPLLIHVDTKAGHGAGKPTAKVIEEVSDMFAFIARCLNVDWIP
# Method in brief: as §1
# Recombinant human FAP = target: T3, Recombinant human FAP (Homo sapiens, UniProt Q12884); test: FAP inhibition, fluorogenic substrate Z-Gly-Pro-AMC; conditions: recombinant human FAP, substrate Z-Gly-Pro-AMC
# T3 construct: purchased R&D systems
# T3 sequence (Q12884 1-760): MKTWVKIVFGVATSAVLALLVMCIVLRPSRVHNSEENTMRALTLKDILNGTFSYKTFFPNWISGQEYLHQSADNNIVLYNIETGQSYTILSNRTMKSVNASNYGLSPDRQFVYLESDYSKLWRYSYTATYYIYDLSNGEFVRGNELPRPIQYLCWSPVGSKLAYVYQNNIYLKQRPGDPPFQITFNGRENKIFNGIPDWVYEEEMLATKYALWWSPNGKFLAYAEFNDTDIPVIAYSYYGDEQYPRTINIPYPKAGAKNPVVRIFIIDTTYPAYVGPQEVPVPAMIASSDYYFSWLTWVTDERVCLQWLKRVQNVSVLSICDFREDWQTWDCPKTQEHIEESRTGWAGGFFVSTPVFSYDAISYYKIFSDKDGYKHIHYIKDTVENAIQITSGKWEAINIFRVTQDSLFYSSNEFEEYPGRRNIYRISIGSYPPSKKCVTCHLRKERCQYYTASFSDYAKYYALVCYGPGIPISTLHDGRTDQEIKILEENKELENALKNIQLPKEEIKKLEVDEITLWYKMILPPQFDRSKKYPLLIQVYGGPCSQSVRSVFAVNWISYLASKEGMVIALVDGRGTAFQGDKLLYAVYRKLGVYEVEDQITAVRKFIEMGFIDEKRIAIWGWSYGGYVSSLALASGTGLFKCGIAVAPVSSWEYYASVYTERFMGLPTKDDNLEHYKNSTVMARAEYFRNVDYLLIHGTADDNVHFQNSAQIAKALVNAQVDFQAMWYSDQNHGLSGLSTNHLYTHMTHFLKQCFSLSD
# Method in brief: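 Recombinant human FAP, 10 ng per reaction, in 50 mM Tris pH 7.5 with 1 M NaCl and 1 mg/ml BSA at 25° C; substrate Z-Gly-Pro-AMC, ≤0.1% DMSO. AMC fluorescence read at ex 380/em 460 nm; % signal-rate decrease vs no-inhibitor control, 8-point curves fitted to a four-parameter logistic for IC50.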
# recombinant human DPP8 = target: T4, recombinant human DPP8 (Homo sapiens, UniProt Q6V1X1); test: DPP8 inhibition, fluorogenic substrate Z-Ala-Pro-AMC; conditions: recombinant human DPP8
# T4 construct: purchased PBS Bioscience
# T4 sequence (Q6V1X1 whole entry): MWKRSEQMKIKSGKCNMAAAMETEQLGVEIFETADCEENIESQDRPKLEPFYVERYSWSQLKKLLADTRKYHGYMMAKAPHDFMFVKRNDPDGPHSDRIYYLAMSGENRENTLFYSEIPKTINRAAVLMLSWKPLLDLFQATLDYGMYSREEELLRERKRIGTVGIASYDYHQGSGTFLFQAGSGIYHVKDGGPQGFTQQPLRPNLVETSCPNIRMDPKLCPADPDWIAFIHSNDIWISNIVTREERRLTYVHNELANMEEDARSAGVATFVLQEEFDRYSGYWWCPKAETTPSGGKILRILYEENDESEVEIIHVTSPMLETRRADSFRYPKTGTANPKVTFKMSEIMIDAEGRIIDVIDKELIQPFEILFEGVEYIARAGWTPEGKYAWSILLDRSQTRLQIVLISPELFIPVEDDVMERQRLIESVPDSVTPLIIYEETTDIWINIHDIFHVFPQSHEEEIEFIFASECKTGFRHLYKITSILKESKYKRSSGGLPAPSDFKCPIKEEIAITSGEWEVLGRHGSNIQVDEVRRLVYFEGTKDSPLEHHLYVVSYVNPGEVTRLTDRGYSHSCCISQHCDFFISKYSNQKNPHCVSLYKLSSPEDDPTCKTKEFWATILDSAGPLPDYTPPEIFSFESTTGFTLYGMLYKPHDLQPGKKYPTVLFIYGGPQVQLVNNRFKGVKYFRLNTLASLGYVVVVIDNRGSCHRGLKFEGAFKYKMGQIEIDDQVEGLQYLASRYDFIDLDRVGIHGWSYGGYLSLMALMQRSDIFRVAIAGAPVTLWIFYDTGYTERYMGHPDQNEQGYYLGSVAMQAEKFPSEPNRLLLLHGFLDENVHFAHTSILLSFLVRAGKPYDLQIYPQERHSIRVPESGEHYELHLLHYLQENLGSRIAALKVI
# Method in brief: as §1
# DPP4 = DPP4 (Homo sapiens, UniProt P27487); test: DPP4 inhibition, fluorogenic substrate H-Gly-Pro-AMC; set-up: purchased R&D Systems; conditions: recombinant human DPP4
# Chain of DPP4 (P27487 whole entry): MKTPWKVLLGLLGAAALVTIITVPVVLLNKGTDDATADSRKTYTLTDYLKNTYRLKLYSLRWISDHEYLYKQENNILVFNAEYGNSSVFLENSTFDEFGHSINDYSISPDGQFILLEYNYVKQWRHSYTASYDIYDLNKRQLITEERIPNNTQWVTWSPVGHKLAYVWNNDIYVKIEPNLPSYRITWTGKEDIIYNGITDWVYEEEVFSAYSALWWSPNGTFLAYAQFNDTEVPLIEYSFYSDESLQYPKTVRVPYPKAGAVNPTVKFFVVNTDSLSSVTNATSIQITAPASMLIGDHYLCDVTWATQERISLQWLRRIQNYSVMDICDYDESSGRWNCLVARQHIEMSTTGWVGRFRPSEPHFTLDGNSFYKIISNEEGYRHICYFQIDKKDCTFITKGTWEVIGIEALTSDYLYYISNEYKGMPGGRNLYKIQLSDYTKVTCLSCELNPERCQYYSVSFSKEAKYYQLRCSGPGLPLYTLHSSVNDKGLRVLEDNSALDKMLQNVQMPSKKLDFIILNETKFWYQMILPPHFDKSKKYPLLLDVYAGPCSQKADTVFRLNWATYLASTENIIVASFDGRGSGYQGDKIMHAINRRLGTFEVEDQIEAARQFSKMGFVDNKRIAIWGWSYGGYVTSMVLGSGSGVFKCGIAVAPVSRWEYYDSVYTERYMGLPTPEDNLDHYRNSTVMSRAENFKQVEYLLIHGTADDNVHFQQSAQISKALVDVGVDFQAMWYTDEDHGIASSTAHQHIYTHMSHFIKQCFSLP
# recombinant human DPP7 = target: T5, recombinant human DPP7 (Homo sapiens, UniProt Q9UHL4); test: DPP7 inhibition, fluorogenic substrate Lys-Pro-AMC; conditions: recombinant human DPP7
# T5 construct: purchased R&D Systems
# Method in brief: as §1
# T1 sequence (Q86TI2 whole entry): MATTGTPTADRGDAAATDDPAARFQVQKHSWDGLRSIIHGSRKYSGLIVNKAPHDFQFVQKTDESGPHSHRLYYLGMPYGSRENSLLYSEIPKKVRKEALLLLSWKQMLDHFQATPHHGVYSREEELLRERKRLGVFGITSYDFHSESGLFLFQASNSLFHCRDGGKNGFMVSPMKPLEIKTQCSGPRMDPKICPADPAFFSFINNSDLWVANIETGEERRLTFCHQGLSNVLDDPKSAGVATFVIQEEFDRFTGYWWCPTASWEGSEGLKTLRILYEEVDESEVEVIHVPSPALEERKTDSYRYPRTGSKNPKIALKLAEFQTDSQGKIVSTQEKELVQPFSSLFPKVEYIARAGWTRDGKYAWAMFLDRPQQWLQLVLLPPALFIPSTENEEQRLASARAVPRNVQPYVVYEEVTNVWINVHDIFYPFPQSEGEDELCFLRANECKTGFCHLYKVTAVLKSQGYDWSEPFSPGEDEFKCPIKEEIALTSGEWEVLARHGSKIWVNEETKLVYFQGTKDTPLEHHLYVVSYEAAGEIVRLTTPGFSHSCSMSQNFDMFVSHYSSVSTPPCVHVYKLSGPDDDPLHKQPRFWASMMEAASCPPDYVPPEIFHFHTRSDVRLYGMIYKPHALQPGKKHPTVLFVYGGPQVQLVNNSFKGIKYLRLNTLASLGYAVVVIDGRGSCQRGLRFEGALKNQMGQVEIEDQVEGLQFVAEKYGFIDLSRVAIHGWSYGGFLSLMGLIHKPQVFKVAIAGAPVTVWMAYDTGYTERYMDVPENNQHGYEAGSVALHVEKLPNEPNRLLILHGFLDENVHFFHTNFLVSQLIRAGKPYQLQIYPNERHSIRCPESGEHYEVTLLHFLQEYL
Structure (SMILES),pIC50 (recombinant human DPP9),IC50 (recombinant human PREP) [nM],pIC50 (Recombinant human FAP),pIC50 (recombinant human DPP8),pIC50 (DPP4),pIC50 (recombinant human DPP7)
"CN(c1cncc2ccoc12)C1CCN(CC(=O)N2C[C@@H](F)C[C@H]2C#N)CC1 [Example 350, (2S,4S)-4-fluoro-1-[2-[4-[furo[3,2-c]pyridin-7-yl(methyl)amino]-1-piperidyl]acetyl]pyrrolidine-2-carbonitrile]",4.56,625,8.09,4.76,5.10,5.04
"N#C[C@@H]1C[C@H](F)CN1C(=O)CN1CCC(Nc2ccc([N+](=O)[O-])c3cnccc23)CC1 [Example 356, (2S,4S)-4-fluoro-1-[2-[4-[(8-nitro-5-isoquinolyl)amino]-1-piperidyl]acetyl]pyrrolidine-2-carbonitrile]",6.13,4980,8.43,6.02,5.40,5.69
"COc1cc2nc(Cl)nc(NC3CCN(CC(=O)N4CCC[C@H]4C#N)CC3)c2cc1OC [Example 358, (2S)-1-[2-[4-[(2-chloro-6,7-dimethoxy-quinazolin-4-yl)amino]-1-piperidyl]acetyl]pyrrolidine-2-carbonitrile]",4.19,11800,8.43,4.52,< 5.00,5.84
"Cc1cccc2c(NC3CCN(CC(=O)N4CCC[C@H]4C#N)CC3)nc(Cl)nc12 [Example 359, (2S)-1-[2-[4-[(2-chloro-8-methyl-quinazolin-4-yl)amino]-1-piperidyl]acetyl]pyrrolidine-2-carbonitrile]",4.50,6000,8.64,5.08,< 5.00,6.01
"N#C[C@@H]1C[C@H](F)CN1C(=O)CN1CCC(Oc2ccnc3ccc(C(F)(F)F)cc23)CC1 [Example 411, (2S,4S)-4-fluoro-1-[2-[4-[[6-(trifluoromethyl)-4-quinolyl]oxy]-1-piperidyl]acetyl]pyrrolidine-2-carbonitrile]",4.53,10600,8.60,5.00,< 5.00,5.50
"N#C[C@@H]1C[C@H](F)CN1C(=O)CN1CCC(Oc2cc(C(F)(F)F)nc3ccc(F)cc23)CC1 [Example 413, (2S,4S)-4-fluoro-1-[2-[4-[[6-fluoro-2-(trifluoromethyl)-4-quinolyl]oxy]-1-piperidyl]acetyl]pyrrolidine-2-carbonitrile]",< 4.00,26500,8.52,4.74,< 5.00,< 4.00
"COc1ccc2nc(C(F)(F)F)cc(OC3CCN(CC(=O)N4C[C@@H](F)C[C@H]4C#N)CC3)c2c1 [Example 414, (2S,4S)-4-fluoro-1-[2-[4-[[6-methoxy-2-(trifluoromethyl)-4-quinolyl]oxy]-1-piperidyl]acetyl]pyrrolidine-2-carbonitrile]",< 4.00,57500,8.37,4.36,< 5.00,5.06

# Further lines, results first:
pIC50 (recombinant human DPP9),IC50 (recombinant human PREP) [nM],pIC50 (Recombinant human FAP),pIC50 (recombinant human DPP8),pIC50 (DPP4),pIC50 (recombinant human DPP7),Structure (SMILES)
5.28,7850,8.29,5.62,5.19,6.28,"N#C[C@@H]1C[C@H](F)CN1C(=O)CN1CCC(Nc2cccc3cnccc23)CC1 [Example 340, (2S,4S)-4-fluoro-1-[2-[4-(5-isoquinolylamino)-1-piperidyl]acetyl]pyrrolidine-2-carbonitrile]"
5.27,6650,7.85,4.40,5.49,6.50,"N#C[C@@H]1C[C@H](F)CN1C(=O)CN1CCC(Nc2cccc3ccncc23)CC1 [Example 342, (2S,4S)-4-fluoro-1-[2-[4-(8-isoquinolylamino)-1-piperidyl]acetyl]pyrrolidine-2-carbonitrile]"
5.49,637,8.57,5.22,5.63,6.47,"N#C[C@@H]1C[C@H](F)CN1C(=O)CN1CCC(Nc2ccnc3c(C(F)(F)F)cccc23)CC1 [Example 346, (2S,4S)-4-fluoro-1-[2-[4-[[8-(trifluoromethyl)-4-quinolyl]amino]-1-piperidyl]acetyl]pyrrolidine-2-carbonitrile]"
5.34,3280,8.47,5.55,5.17,6.07,"N#C[C@@H]1C[C@H](F)CN1C(=O)CN1CCC(Nc2cccc3c(Cl)nccc23)CC1 [Example 351, (2S,4S)-1-[2-[4-[(1-chloro-5-isoquinolyl)amino]-1-piperidyl]acetyl]-4-fluoro-pyrrolidine-2-carbonitrile]"
5.54,3570,8.35,< 5.00,5.23,5.97,"N#C[C@@H]1C[C@H](F)CN1C(=O)CN1CCC(Nc2ccc(Cl)c3cnccc23)CC1 [Example 353, (2S,4S)-1-[2-[4-[(8-chloro-5-isoquinolyl)amino]-1-piperidyl]acetyl]-4-fluoro-pyrrolidine-2-carbonitrile]"
5.31,2820,8.05,5.75,5.68,6.37,"Cc1cncc2cccc(NC3CCN(CC(=O)N4C[C@@H](F)C[C@H]4C#N)CC3)c12 [Example 354, (2S,4S)-4-fluoro-1-[2-[4-[(4-methyl-5-isoquinolyl)amino]-1-piperidyl]acetyl]pyrrolidine-2-carbonitrile]"
5.55,4830,8.42,5.44,5.33,5.79,"N#C[C@@H]1C[C@H](F)CN1C(=O)CN1CCC(Nc2ccc(F)c3cnccc23)CC1 [Example 357, (2S,4S)-4-fluoro-1-[2-[4-[(8-fluoro-5-isoquinolyl)amino]-1-piperidyl]acetyl]pyrrolidine-2-carbonitrile]"
4.16,1280,8.23,4.92,< 5.00,4.97,"N#C[C@@H]1C[C@H](F)CN1C(=O)CN1CCC(Oc2cc(C(F)(F)F)nc3ccccc23)CC1 [Example 412, (2S,4S)-4-fluoro-1-[2-[4-[[2-(trifluoromethyl)-4-quinolyl]oxy]-1-piperidyl]acetyl]pyrrolidine-2-carbonitrile]"
4.40,1410,8.19,4.78,< 5.00,4.87,"COc1cccc2c(OC3CCN(CC(=O)N4C[C@@H](F)C[C@H]4C#N)CC3)cc(C(F)(F)F)nc12 [Example 415, (2S,4S)-4-fluoro-1-[2-[4-[[8-methoxy-2-(trifluoromethyl)-4-quinolyl]oxy]-1-piperidyl]acetyl]pyrrolidine-2-carbonitrile]"
